Source: US20260001875A1, “AMINOPYRIMIDINYL DERIVATIVES FOR THE TREATMENT OF PARKINSON'S DISEASE” (UNIVERSITY OF DUNDEE, priority 2022, published 2026)

What was measured:
Rab10 pThr73 [1] = assay: Rab10 Thr73 dephosphorylation (immunoblot) in LRRK2^G2019S MEFs; type: cell-based; settings: Mus musculus, read-out: pRab10 inhibited in LRRK2^G2019S MEFs
Procedure: (§1) The second-generation PROTACs were tested in parallel with the first generation PROTACs SD75, SD82, and SD100. The compounds were tested at 33 nM or […] concentrations for 4 hours or 24 hours, running two biological replicates per condition and achieving quantifications representative of both replicates. Analysis by quantitative immunoblotting was performed with readouts of the total LRRK2 (antibody recognizes epitope in C-terminus of protein), Rab10 pThr73 (physiological substrate) and LRRK2 pSer935 (biomarker phosphorylation site).
(§2) Primary MEFs were generated as described in a previous study (Wiggin et al., Mol. Cell Biol. 2002 April; 22(8):2871-81.). Briefly, the uterine horn was collected from adult female mice at day E12.5 and transferred to a 10 cm tissue culture dish containing cold PBS. Two forceps were used to tear the yolk sacs to isolate each embryo. Forceps were cleaned thoroughly with 70% ethanol between each embryo isolation. The embryos were culled, and a tissue piece was collected in a PCR tube for genotyping. The red tissue of the embryo, which grows to become the heart and liver, was removed. The remainder of the embryo was minced with a scalpel blade and incubated with 7.5 ml trypsin-EDTA solution for 10 minutes in a 37° C. tissue culture CO2 incubator. The dish was removed from the incubator and checked under a light microscope for single cells. 7.5 ml complete media was added to the trypsinised cells, and the cell suspension was transferred to a 15 ml Falcon tube, centrifuged at 1200 rpm for 5 minutes at room temperature. The trypsin was aspirated, the cell pellet was resuspended in 5 ml fresh complete media, and the cell suspension was plated in a 60 mm tissue culture dish and incubated in a 37° C., 5% CO2 tissue culture incubator. The MEFs at this stage were considered as passage 0 and were passaged and expanded for experimental use once the genotype was confirmed by allelic sequencing and immunoblotting. MEFs were cultured in Dulbecco's modified Eagle medium (DMEM) containing 10% (v/v) fetal bovine serum (FBS), 2 mM L-glutamine, 100 U/ml penicillin, and 100 μg/ml streptomycin supplemented with 1× non-essential amino acids and 1 mM sodium pyruvate.
Culturing and passaging of adherent cell lines were carried out using aseptic technique in CL1 or CL2 (for PBMC isolation) biological safety cabinets. All cells were incubated in a 37° C. incubator with 5% CO2. Cell lines were regularly tested for mycoplasma contamination. For western blot assay, the cells were seeded in 6-well plates. […] The cells were immediately placed on ice and were scraped and collected into 1.5 ml Eppendorf tubes. Cell lysates were incubated on ice for 10 minutes prior to centrifugation at 15,000 g at 4° C. for 15 minutes. The cell pellet was discarded, and supernatant was collected for analysis by quantitative immunoblotting. For long term storage, the supernatant was flash frozen and stored at −80° C. Protein concentrations of cell lysates were determined using the Bradford assay.
Cell lysates containing a quarter of a volume of 4× NuPAGE LDS sample buffer (NP0007) supplemented with 5% β-mercaptoethanol, were heated at 95° C. for 5 minutes. 15 to 20 μg of samples were loaded onto pre-cast 4-12% Bis-Tris midi 20W or 26W gels (Thermofisher Scientific®, Cat #WG1402BOX or WG1403BOX) and resolved at 130 V for 2 hours with NuPAGE MOPS SDS running buffer (Thermofisher Scientific® Cat #NP0001-02). Proteins were electrophoretically transferred onto a 0.45 μm nitrocellulose membrane (GE Healthcare, Amersham Protran® Supported 0.45 mm NC) at 90 V for 90 min on ice in transfer buffer (48 mM Tris base and 39 mM glycine supplemented with 20% methanol). The transferred membrane was blocked with 5% (w/v) skim milk powder dissolved in tris-buffered saline with tween (TBS-T) (50 mM Tris base, 150 mM sodium chloride (NaCl), 0.1% (v/v) Tween-20) at room temperature for 1 hour.

Rab10 pThr73 [2] = assay: Rab10 Thr73 dephosphorylation (immunoblot) in WT MEFs; type: cell-based, mouse; settings: Mus musculus, read-out: pRab10 inhibited in WT MEFs
Procedure: as §1, with “Western blot degradation assays for the LRRK2 protacs were performed with WT and PD-associated LRRK2 [G2019S] mouse embryonic fibroblasts (MEFs). The second-generation” for “The second-generation”
as §2
Culturing and passaging of adherent cell lines were carried out using aseptic technique in CL1 or CL2 (for PBMC isolation) biological safety cabinets. All cells were incubated in a 37° C. incubator with 5% CO2. Cell lines were regularly tested for mycoplasma contamination. For western blot assay, the cells were seeded in 6-well plates. After treating with testing compounds at indicated concentrations and time period, the media was removed and the cells were washed with PBS and lysed in 100 μl ice-cold complete lysis buffer containing 50 mM Tris-HCl pH 7.4, 1 mM EGTA, 10 mM 2-glycerophosphate, 50 mM sodium fluoride, 5 mM sodium pyrophosphate, 270 mM sucrose, supplemented with 1 μg/ml microcystin-LR, 1 mM sodium orthovanadate, complete EDTA-free protease inhibitor cocktail (Roche) and 1% (v/v) Triton X-100. The cells were immediately placed on ice and were scraped and collected into 1.5 ml Eppendorf tubes. Cell lysates were incubated on ice for 10 minutes prior to centrifugation at 15,000 g at 4° C. for 15 minutes. The cell pellet was discarded, and supernatant was collected for analysis by quantitative immunoblotting. For long term storage, the supernatant was flash frozen and stored at −80° C. Protein concentrations of cell lysates were determined using the Bradford assay.
Cell lysates containing a quarter of a volume of 4× NuPAGE LDS sample buffer (NP0007) supplemented with 5% β-mercaptoethanol, were heated at 95° C. for 5 minutes. […]

Rab10 pThr73 [3] = assay: Rab10 Thr73 dephosphorylation (immunoblot) in LRRK2^G2019S MEFs; type: cell-based, mouse; settings: Mus musculus, read-out: pRab10 inhibited in LRRK2^G2019S MEFs

CNc1nc(Nc2ccc(OC[C@H]3CC[C@H](CSC(C)(C)C(NC(=O)C4(F)CC4)C(=O)N4C[C@H](O)C[C@H]4C(=O)NCc4ccc(-c5scnc5C)cc4)CC3)cc2OC)ncc1Cl (stereo partly drawn) [XL01168, (2S,4R)-1-((S)-3-((((1R,4S)-4-((4-((5-chloro-4-(methylamino)pyrimidin-2-yl)amino)-3-methoxyphenoxy)methyl)cyclohexyl)methyl)thio)-2-(1-fluorocyclopropane-1-carboxamido)-3-methylbutanoyl)-4-hydroxy-N-(4-(4-methylthiazol-5-yl)benzyl)pyrrolidine-2-carboxamide]
inhibition at 0.033 µM (Rab10 pThr73 [1]; 33 nM/4 h treatment): 0 to 70% | inhibition at 0.033 µM (Rab10 pThr73 [1]; 33 nM/24 h treatment): 0 to 90% | inhibition at 0.033 µM (Rab10 pThr73 [2]; 33 nM/4 h treatment): 0 to 40% | inhibition at 0.033 µM (Rab10 pThr73 [2]; 33 nM/24 h treatment): 0 to 60% | inhibition at 1 µM (Rab10 pThr73 [2]; 1 μM/4 h treatment): 10 to 95% | inhibition at 1 µM (Rab10 pThr73 [2]; 1 μM/24 h treatment): 30 to 100% | inhibition at 1 µM (Rab10 pThr73 [3]; 1 μM/4 h treatment): 20 to 100% | inhibition at 1 µM (Rab10 pThr73 [3]; 1 μM/24 h treatment): 10 to 100%

CNc1nc(Nc2ccc(C(=O)N3CCN(CCOCCSC(C)(C)[C@H](NC(=O)C4(F)CC4)C(=O)N4C[C@H](O)C[C@H]4C(=O)NCc4ccc(-c5scnc5C)cc4)CC3)cc2OC)ncc1Cl [XL01131, (2S,4R)-1-((R)-3-((2-(2-(4-(4-((5-chloro-4-(methylamino)pyrimidin-2-yl)amino)-3-methoxybenzoyl)piperazin-1-yl)ethoxy)ethyl)thio)-2-(1-fluorocyclopropane-1-carboxamido)-3-methylbutanoyl)-4-hydroxy-N-(4-(4-methylthiazol-5-yl)benzyl)pyrrolidine-2-carboxamide]
inhibition at 0.033 µM (Rab10 pThr73 [1]; 33 nM/4 h treatment): 0 to 70% | inhibition at 0.033 µM (Rab10 pThr73 [1]; 33 nM/24 h treatment): 0 to 90% | inhibition at 0.033 µM (Rab10 pThr73 [2]; 33 nM/4 h treatment): 0 to 40% | inhibition at 0.033 µM (Rab10 pThr73 [2]; 33 nM/24 h treatment): 0 to 60% | inhibition at 1 µM (Rab10 pThr73 [2]; 1 μM/4 h treatment): 10 to 95% | inhibition at 1 µM (Rab10 pThr73 [2]; 1 μM/24 h treatment): 30 to 100% | inhibition at 1 µM (Rab10 pThr73 [3]; 1 μM/4 h treatment): 20 to 100% | inhibition at 1 µM (Rab10 pThr73 [3]; 1 μM/24 h treatment): 10 to 100%

CNc1nc(Nc2ccc(C(=O)N3CCN(CCCSC(C)(C)[C@H](NC(=O)C4(F)CC4)C(=O)N4C[C@H](O)C[C@H]4C(=O)NCc4ccc(-c5scnc5C)c(F)c4)CC3)cc2OC)ncc1Cl [XL01122, (2S,4R)-1-((R)-3-((3-(4-(4-((5-chloro-4-(methylamino)pyrimidin-2-yl)amino)-3-methoxybenzoyl)piperazin-1-yl)propyl)thio)-2-(1-fluorocyclopropane-1-carboxamido)-3-methylbutanoyl)-N-(3-fluoro-4-(4-methylthiazol-5-yl)benzyl)-4-hydroxypyrrolidine-2-carboxamide]
inhibition at 0.033 µM (Rab10 pThr73 [1]; 33 nM/4 h treatment): 0 to 70% | inhibition at 0.033 µM (Rab10 pThr73 [1]; 33 nM/24 h treatment): 0 to 90% | inhibition at 0.033 µM (Rab10 pThr73 [2]; 33 nM/4 h treatment): 0 to 40% | inhibition at 0.033 µM (Rab10 pThr73 [2]; 33 nM/24 h treatment): 0 to 60% | inhibition at 1 µM (Rab10 pThr73 [2]; 1 μM/4 h treatment): 10 to 95% | inhibition at 1 µM (Rab10 pThr73 [2]; 1 μM/24 h treatment): 30 to 100% | inhibition at 1 µM (Rab10 pThr73 [3]; 1 μM/4 h treatment): 20 to 100% | inhibition at 1 µM (Rab10 pThr73 [3]; 1 μM/24 h treatment): 10 to 100%

CNc1nc(Nc2ccc(C(=O)N3CCN(Cc4ccc(CSC(C)(C)[C@H](NC(=O)C5(F)CC5)C(=O)N5C[C@H](O)C[C@H]5C(=O)NCc5ccc(-c6scnc6C)cc5)cc4)CC3)cc2OC)ncc1C(F)(F)F [XL01070B, (2S,4R)-1-((R)-2-(1-fluorocyclopropane-1-carboxamido)-3-((4-((4-(3-methoxy-4-((4-(methylamino)-5-(trifluoromethyl)pyrimidin-2-yl)amino)benzoyl)piperazin-1-yl)methyl)benzyl)thio)-3-methylbutanoyl)-4-hydroxy-N-(4-(4-methylthiazol-5-yl)benzyl)pyrrolidine-2-carboxamide]
inhibition at 0.033 µM (Rab10 pThr73 [1]; 33 nM/4 h treatment): 0 to 70% | inhibition at 0.033 µM (Rab10 pThr73 [1]; 33 nM/24 h treatment): 0 to 90% | inhibition at 0.033 µM (Rab10 pThr73 [2]; 33 nM/4 h treatment): 0 to 40% | inhibition at 0.033 µM (Rab10 pThr73 [2]; 33 nM/24 h treatment): 0 to 60% | inhibition at 1 µM (Rab10 pThr73 [2]; 1 μM/4 h treatment): 10 to 95% | inhibition at 1 µM (Rab10 pThr73 [2]; 1 μM/24 h treatment): 30 to 100% | inhibition at 1 µM (Rab10 pThr73 [3]; 1 μM/4 h treatment): 20 to 100% | inhibition at 1 µM (Rab10 pThr73 [3]; 1 μM/24 h treatment): 10 to 100%

CNc1nc(Nc2ccc(C(=O)N3CCN(CCOCCOCCSC(C)(C)[C@H](NC(=O)C4(F)CC4)C(=O)N4C[C@H](O)C[C@H]4C(=O)N[C@@H](C)c4ccc(-c5scnc5C)cc4)CC3)cc2OC)ncc1Cl [XL01119, (2S,4R)-1-((R)-3-((2-(2-(2-(4-(4-((5-chloro-4-(methylamino)pyrimidin-2-yl)amino)-3-methoxybenzoyl)piperazin-1-yl)ethoxy)ethoxy)ethyl)thio)-2-(1-fluorocyclopropane-1-carboxamido)-3-methylbutanoyl)-4-hydroxy-N—((S)-1-(4-(4-methylthiazol-5-yl)phenyl)ethyl)pyrrolidine-2-carboxamide]
inhibition at 0.033 µM (Rab10 pThr73 [1]; 33 nM/4 h treatment): 0 to 70% | inhibition at 0.033 µM (Rab10 pThr73 [1]; 33 nM/24 h treatment): 0 to 90% | inhibition at 0.033 µM (Rab10 pThr73 [2]; 33 nM/4 h treatment): 0 to 40% | inhibition at 0.033 µM (Rab10 pThr73 [2]; 33 nM/24 h treatment): 0 to 60% | inhibition at 1 µM (Rab10 pThr73 [2]; 1 μM/4 h treatment): 10 to 95% | inhibition at 1 µM (Rab10 pThr73 [2]; 1 μM/24 h treatment): 30 to 100% | inhibition at 1 µM (Rab10 pThr73 [3]; 1 μM/4 h treatment): 20 to 100% | inhibition at 1 µM (Rab10 pThr73 [3]; 1 μM/24 h treatment): 10 to 100%

CNc1nc(Nc2ccc(C(=O)N3CCN(CCCOc4cccc(C(=O)c5csc(C6CCCN6C(=O)[C@@H](NC(=O)[C@H](C)NC)C6CCCCC6)n5)c4)CC3)cc2OC)ncc1Cl (stereo partly drawn) [SD114, (S)—N—((S)-2-((S)-2-(4-(3-(3-(4-(4-((5-chloro-4-(methylamino)pyrimidin-2-yl)amino)-3-methoxybenzoyl)piperazin-1-yl)propoxy)benzoyl)thiazol-2-yl)pyrrolidin-1-yl)-1-cyclohexyl-2-oxoethyl)-2-(methylamino)propenamide]
inhibition at 0.033 µM (Rab10 pThr73 [1]; 33 nM/4 h treatment): 0 to 60% | inhibition at 0.033 µM (Rab10 pThr73 [1]; 33 nM/24 h treatment): 0 to 70% | inhibition at 0.033 µM (Rab10 pThr73 [2]; 33 nM/4 h treatment): 0 to 25% | inhibition at 0.033 µM (Rab10 pThr73 [2]; 33 nM/24 h treatment): 10 to 40% | inhibition at 1 µM (Rab10 pThr73 [2]; 1 μM/4 h treatment): 18 to 90% | inhibition at 1 µM (Rab10 pThr73 [2]; 1 μM/24 h treatment): 30 to 90% | inhibition at 1 µM (Rab10 pThr73 [3]; 1 μM/4 h treatment): 30 to 95% | inhibition at 1 µM (Rab10 pThr73 [3]; 1 μM/24 h treatment): 30 to 100%
